Measurements published in ChEMBL document CHEMBL3576831, “Discovery of a Selective TRPM8 Antagonist with Clinical Efficacy in Cold-Related Pain” (ACS Med Chem Lett, 2015).
Values belong to the molecule of their own block, whether it stands above or below them. Calls of active or inactive are those of the source. The rule behind the calls is not given here.

Key:
[1] = biological target: T1, Transient receptor potential cation channel subfamily M member 8 (Homo sapiens, UniProt Q7Z2W7); assay: Antagonist activity against human recombinant TRPM8 expressed in CHO T-rex cells assessed as inhibition of WS12-induced calcium response pre-incubated for 20 mins before WS12 addition; type: cell-based
Liver microsome = assay: Intrinsic clearance in rat liver microsomes; type: ADME
[2] = Intrinsic clearance in human liver microsomes; type: ADME; details: read-out: CLH
Hepatocyte = assay: Intrinsic clearance in human hepatocytes assessed per million cells; type: ADME, cell-based
[3] = biological target: T2, Voltage-gated inwardly rectifying potassium channel KCNH2 (Homo sapiens, UniProt Q12809); assay: Inhibition of dofetilide binding to human ERG
[4] = Lipophilicity, log D of the compound; type: physicochemical; details: octanol/water
CYP1A2 = biological target: T3, CYP1A2 (Homo sapiens, UniProt P05177); assay: Inhibition of CYP1A2 (unknown origin) at 3 uM; type: ADME
T3 sequence (P05177 whole entry): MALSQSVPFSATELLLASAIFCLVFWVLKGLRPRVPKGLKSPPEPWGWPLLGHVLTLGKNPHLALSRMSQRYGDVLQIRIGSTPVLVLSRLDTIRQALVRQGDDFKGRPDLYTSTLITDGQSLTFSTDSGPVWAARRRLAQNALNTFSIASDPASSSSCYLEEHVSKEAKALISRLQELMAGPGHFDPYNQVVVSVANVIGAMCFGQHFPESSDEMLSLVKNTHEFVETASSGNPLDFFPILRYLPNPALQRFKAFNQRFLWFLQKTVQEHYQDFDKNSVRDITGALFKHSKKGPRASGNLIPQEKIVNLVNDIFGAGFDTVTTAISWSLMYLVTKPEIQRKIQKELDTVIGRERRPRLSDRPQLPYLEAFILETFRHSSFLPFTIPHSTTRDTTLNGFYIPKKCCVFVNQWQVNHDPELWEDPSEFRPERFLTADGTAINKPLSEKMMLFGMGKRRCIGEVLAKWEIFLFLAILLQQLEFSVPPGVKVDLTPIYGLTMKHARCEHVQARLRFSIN

[5] = Fraction unbound in rat plasma; type: ADME, cell-free
[6] = Oral bioavailability in rat at 2 mg/kg; type: ADME, organism-based; details: in vivo
[7] = Oral absorption in rat at 2 mg/kg; type: ADME, organism-based; details: in vivo
[8] = Half life in beagle dog at 0.2 mg/kg, iv; type: ADME, organism-based, Canis lupus familiaris; details: in vivo
[9] = Permeability in RRCK cells; type: ADME, cell-based, Canis lupus familiaris, MDCKII-LE; details: dog, MDCK; read-out: permeability
[10] = Clearance in beagle dog at 0.2 mg/kg, iv; type: ADME, organism-based, Canis lupus familiaris; details: in vivo
[11] = Half life in rat; type: ADME, organism-based; details: in vivo
[12] = Fraction unbound in guinea pig plasma; type: ADME, cell-free, Cavia porcellus
[13] = biological target: T2, Voltage-gated inwardly rectifying potassium channel KCNH2; assay: Inhibition of human ERG
Homo sapiens [14] = species: Homo sapiens; assay: Selectivity for human TRPM8 over TRPV1 (unknown origin)
Rattus norvegicus [15] = species: Rattus norvegicus; assay: Unbound clearance in rat; type: ADME, organism-based; details: in vivo
Homo sapiens [16] = assay: Analgesic effect in human at 900 mg administered as single dose by cold pressor test; type: functional, organism-based
CYP2C9 = CYP2C9 (Homo sapiens, UniProt P11712); assay: Inhibition of CYP2C9 (unknown origin) at 3 uM; type: ADME
CYP3A4 = CYP3A4 (Homo sapiens, UniProt P08684); assay: Inhibition of CYP3A4 (unknown origin) at 3 uM; type: ADME
Homo sapiens [17] = assay: Toxicity in human assessed as effect on core body temperature up to 900 mg administered as single dose during cold pressor test; type: organism-based; details: in vivo
CYP2D6 = CYP2D6 (Homo sapiens, UniProt P10635); assay: Inhibition of CYP2D6 (unknown origin) at 3 uM; type: ADME
[18] = Volume of distribution at steady state in rat; type: ADME, organism-based; details: in vivo, read-out: Vdss
Cavia porcellus = species: Cavia porcellus; assay: Analgesic effect in guinea pig model of cold-induced bladder contractility assessed as maximum unbound concentration to causing therapeutic efficacy; type: functional
[19] = Fraction unbound in human plasma; type: ADME, cell-free
Homo sapiens [20] = species: Homo sapiens; assay: Selectivity for human TRPM8 over TRPA1 (unknown origin)
[21] = Clearance in rat; type: ADME, organism-based; details: in vivo
[22] = Volume of distribution at steady state in beagle dog at 0.2 mg/kg, iv; type: ADME, organism-based, Canis lupus familiaris; details: in vivo, read-out: Vdss
[23] = Oral bioavailability in beagle dog at 20 mg/kg; type: ADME, organism-based, Canis lupus familiaris; details: in vivo
[24] = Oral bioavailability in rat at 10 mg/kg; type: ADME, organism-based; details: in vivo
Homo sapiens [25] = assay: Toxicity in human assessed as induction of nontolerated hot sensation localized to mouth, face, upper body, arms and hands at 900 mg administered as single dose during cold pressor test; type: organism-based; details: in vivo
[26] = Fraction unbound in dog plasma; type: ADME, cell-free, Canis lupus familiaris
[27] = Efflux ratio in MDCK cells; type: ADME, cell-based, Canis lupus familiaris; details: dog
[28] = Oral absorption in rat at 10 mg/kg; type: ADME, organism-based; details: in vivo
CYP2C8 = biological target: T4, CYP2C8 (Homo sapiens, UniProt P10632); assay: Inhibition of CYP2C8 (unknown origin) at 3 uM; type: ADME
T4 sequence (P10632 whole entry): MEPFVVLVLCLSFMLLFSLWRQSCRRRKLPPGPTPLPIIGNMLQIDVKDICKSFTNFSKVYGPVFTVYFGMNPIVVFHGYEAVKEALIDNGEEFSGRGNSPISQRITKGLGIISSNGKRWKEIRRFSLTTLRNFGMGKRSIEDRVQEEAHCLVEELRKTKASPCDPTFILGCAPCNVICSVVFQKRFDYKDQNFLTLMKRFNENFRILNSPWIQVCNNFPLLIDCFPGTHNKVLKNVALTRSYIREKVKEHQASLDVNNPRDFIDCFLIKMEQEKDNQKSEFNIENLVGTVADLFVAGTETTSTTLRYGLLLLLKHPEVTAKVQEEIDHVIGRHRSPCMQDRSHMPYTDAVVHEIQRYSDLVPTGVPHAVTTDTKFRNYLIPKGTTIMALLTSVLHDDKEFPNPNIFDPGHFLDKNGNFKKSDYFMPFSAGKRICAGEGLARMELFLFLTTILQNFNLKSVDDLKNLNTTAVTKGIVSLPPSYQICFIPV

Rattus norvegicus [29] = species: Rattus norvegicus; assay: Drug metabolism in bile-duct cannulated rat assessed as formation of acyl glucuronide formation; type: ADME, organism-based; details: in vivo
[30] = Oral absorption in beagle dog at 20 mg/kg; type: ADME, organism-based, Canis lupus familiaris; details: in vivo
[31] = biological target: T1, Transient receptor potential cation channel subfamily M member 8; assay: Antagonist activity against human TRPM8 by single cell patch clamp electrophysiology
Canis familiaris = assay: Unbound clearance in beagle dog at 0.2 mg/kg, iv; type: ADME, organism-based, Canis lupus familiaris; details: in vivo

T1 sequence (Q7Z2W7 whole entry): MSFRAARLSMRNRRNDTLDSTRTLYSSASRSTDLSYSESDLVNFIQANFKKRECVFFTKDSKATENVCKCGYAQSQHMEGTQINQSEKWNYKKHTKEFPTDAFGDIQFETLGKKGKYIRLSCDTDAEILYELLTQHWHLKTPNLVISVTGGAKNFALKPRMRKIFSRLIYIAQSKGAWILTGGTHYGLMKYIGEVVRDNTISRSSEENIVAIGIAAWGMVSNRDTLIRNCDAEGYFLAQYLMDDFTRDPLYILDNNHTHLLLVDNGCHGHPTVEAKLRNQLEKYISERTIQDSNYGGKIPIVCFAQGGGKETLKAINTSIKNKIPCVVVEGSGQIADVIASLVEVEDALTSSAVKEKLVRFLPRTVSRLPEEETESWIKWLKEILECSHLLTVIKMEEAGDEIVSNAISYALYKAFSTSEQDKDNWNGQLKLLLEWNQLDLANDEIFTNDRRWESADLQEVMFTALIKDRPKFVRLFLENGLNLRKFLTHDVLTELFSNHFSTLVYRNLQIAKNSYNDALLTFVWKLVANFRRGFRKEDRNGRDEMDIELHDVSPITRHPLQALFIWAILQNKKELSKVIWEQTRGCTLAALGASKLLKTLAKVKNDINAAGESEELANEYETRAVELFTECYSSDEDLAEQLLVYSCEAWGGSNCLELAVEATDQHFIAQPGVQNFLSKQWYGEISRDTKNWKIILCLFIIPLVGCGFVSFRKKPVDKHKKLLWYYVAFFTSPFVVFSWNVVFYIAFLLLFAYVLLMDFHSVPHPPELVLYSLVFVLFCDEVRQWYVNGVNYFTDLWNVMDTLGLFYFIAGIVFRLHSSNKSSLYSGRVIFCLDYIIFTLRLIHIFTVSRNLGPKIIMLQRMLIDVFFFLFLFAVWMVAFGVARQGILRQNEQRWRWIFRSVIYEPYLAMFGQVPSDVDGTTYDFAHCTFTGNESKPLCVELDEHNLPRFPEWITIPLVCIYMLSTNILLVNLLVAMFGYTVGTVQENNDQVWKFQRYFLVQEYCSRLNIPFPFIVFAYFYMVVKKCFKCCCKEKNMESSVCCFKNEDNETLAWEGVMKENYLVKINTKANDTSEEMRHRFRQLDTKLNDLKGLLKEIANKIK
Chain of CYP2D6 (P10635 whole entry): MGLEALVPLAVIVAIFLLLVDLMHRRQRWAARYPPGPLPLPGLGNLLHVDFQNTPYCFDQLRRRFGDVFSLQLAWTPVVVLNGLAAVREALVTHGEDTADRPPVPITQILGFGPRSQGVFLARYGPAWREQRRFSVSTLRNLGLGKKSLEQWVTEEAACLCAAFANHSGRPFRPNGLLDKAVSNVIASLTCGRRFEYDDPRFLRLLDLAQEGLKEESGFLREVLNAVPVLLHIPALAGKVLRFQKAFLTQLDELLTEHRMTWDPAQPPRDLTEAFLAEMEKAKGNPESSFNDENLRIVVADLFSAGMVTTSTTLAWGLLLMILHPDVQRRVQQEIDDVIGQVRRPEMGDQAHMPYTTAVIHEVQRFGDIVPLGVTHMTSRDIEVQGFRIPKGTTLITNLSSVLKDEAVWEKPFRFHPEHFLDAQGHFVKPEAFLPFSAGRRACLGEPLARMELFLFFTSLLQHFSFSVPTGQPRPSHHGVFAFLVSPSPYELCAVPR
Chain of CYP2C9 (P11712 whole entry): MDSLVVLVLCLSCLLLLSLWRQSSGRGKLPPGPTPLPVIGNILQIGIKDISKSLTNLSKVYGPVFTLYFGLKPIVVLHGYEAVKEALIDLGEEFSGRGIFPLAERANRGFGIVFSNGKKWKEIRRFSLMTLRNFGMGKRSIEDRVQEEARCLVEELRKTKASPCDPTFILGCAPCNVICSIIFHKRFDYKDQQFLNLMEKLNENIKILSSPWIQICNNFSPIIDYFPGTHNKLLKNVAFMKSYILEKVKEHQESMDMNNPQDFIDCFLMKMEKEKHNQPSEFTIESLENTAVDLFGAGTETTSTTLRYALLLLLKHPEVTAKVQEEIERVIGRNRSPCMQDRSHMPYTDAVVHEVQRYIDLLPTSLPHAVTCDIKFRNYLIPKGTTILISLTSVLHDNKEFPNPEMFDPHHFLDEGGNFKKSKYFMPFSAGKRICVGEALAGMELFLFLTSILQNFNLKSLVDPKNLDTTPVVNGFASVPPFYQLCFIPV
T2 sequence (Q12809 whole entry): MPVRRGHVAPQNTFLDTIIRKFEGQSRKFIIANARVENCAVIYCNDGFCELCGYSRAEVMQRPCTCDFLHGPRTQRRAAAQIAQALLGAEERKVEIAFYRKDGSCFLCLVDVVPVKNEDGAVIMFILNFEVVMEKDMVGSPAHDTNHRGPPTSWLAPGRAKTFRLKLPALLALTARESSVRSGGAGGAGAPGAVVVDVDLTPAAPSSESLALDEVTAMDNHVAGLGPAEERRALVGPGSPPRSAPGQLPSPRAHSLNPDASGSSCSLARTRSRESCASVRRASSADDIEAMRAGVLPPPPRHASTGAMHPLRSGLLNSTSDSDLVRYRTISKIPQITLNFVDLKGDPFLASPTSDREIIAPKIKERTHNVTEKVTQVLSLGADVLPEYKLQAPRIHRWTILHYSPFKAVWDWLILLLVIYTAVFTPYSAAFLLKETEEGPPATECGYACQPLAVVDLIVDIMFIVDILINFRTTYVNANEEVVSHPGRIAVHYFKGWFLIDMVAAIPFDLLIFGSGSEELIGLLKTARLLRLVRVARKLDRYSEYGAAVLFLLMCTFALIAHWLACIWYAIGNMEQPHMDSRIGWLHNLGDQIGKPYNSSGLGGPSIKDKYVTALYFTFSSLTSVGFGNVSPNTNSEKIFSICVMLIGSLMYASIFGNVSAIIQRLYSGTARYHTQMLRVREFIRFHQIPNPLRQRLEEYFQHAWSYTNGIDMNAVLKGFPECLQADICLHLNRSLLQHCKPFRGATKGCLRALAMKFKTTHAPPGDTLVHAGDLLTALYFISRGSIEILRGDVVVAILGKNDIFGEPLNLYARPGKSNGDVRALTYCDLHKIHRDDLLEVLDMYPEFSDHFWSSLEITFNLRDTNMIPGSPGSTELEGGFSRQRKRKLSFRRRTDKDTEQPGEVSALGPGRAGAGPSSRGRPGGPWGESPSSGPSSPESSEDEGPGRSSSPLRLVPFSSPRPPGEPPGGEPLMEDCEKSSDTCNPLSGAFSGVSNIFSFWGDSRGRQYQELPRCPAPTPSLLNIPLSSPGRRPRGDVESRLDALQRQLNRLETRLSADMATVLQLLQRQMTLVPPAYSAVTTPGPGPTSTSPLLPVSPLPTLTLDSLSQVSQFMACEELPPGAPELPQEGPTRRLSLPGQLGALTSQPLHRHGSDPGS
Chain of CYP3A4 (P08684 whole entry): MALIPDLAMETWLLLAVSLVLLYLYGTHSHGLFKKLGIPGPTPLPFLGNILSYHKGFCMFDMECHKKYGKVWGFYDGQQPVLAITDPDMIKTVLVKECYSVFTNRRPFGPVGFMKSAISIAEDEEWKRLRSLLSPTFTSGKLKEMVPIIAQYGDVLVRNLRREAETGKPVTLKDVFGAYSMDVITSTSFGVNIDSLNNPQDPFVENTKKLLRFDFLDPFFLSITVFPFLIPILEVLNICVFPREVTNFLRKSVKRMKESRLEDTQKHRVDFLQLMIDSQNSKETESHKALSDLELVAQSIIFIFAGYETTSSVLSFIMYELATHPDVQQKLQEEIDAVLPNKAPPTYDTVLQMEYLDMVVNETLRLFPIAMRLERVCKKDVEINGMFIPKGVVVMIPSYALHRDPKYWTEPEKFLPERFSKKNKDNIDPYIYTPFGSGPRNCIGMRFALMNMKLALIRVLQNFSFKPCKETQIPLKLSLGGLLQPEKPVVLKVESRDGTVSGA

Compound: CC(c1ccc(F)cc1)N(Cc1cccc(C(=O)O)c1)C(=O)C1Cc2ccccc2C1 (racemic)
IC50 [1]: > 5000 nM

Compound: O=C(O)c1cccc(CN(C(=O)c2cnc3ccccc3c2)[C@H](CO)c2ccccc2)c1
IC50 [1]: > 6860 nM

Compound: C[C@H](c1ccc(F)cc1)N(Cc1cccc(C(=O)O)c1)C(=O)c1cnc2ccccc2c1 [PF-05105679]
inhibition at 3 µM (CYP1A2): 0%
microsomal CLint (Liver microsome): 17 µL/min/mg
fraction unbound [5]: 0.033
bioavailability [6]: 29%
Fa [7]: 46%
half-life [8]: 3.9 h
Papp [9]: 6.8 ×10⁻⁶ cm/s
clearance [10]: 31 mL/min/kg
hepatocyte intrinsic clearance (Hepatocyte): < 15 µL/min/million cells
half-life [11]: 3.6 h
fraction unbound [12]: 0.07
IC50 [13]: > 30000 nM
Selectivity ratio (Homo sapiens [14]): > 100
CL free (Rattus norvegicus [15]): 618 mL/min/kg
Activity (Homo sapiens [16]): Active
inhibition at 3 µM (CYP2C9): 0%
inhibition at 3 µM (CYP3A4): 0%
Activity (Homo sapiens [17]): Non-toxic
Ki [3]: > 15900 nM
IC50 [1]: 181 nM
inhibition at 3 µM (CYP2D6): 0%
Vd [18]: 6.2 L/kg
fCmax (Cavia porcellus): 254 nM
fraction unbound [19]: 0.012
Selectivity ratio (Homo sapiens [20]): > 100
clearance [21]: 19.8 mL/min/kg
Vd [22]: 7.4 L/kg
bioavailability [23]: 92%
bioavailability [24]: 62%
Activity (Homo sapiens [25]): Toxic
logD [4]: 1
fraction unbound [26]: 0.067
efflux ratio [27]: 4.8
Fa [28]: 100%
microsomal CLint [2]: < 8 µL/min/mg
inhibition at 3 µM (CYP2C8): 0%
Drug metabolism (Rattus norvegicus [29]): metabolite_detected
Fa [30]: 100%
IC50 [31]: 103 nM
CL free (Canis familiaris): 462 mL/min/kg

Compound: C[C@H](c1ccc(F)cc1)N(Cc1ccc(F)c(C(=O)O)c1)C(=O)c1cnc2ccccc2c1
IC50 [1]: 3280 nM

Compound: C[C@H](c1ccc(F)cc1F)N(Cc1cccc(C(=O)O)n1)C(=O)c1cc2ccccc2cn1
inhibition at 3 µM (CYP1A2): 0%
microsomal CLint (Liver microsome): 31 µL/min/mg
hepatocyte intrinsic clearance (Hepatocyte): < 2.2 µL/min/million cells
inhibition at 3 µM (CYP2C9): 0%
inhibition at 3 µM (CYP3A4): 0%
IC50 [1]: 190 nM
inhibition at 3 µM (CYP2D6): 0%
logD [4]: 0.4
microsomal CLint [2]: 11 µL/min/mg
inhibition at 3 µM (CYP2C8): 0%

Compound: C[C@H](c1ccc(F)cc1)N(Cc1cccc(C(=O)O)c1)C(=O)Cc1cccc(Cl)c1
IC50 [1]: > 10000 nM

Compound: C[C@H](c1ccc(F)cc1F)N(Cc1cccc(C(=O)O)c1)C(=O)c1cnc2ccccc2c1
IC50 [1]: 288 nM

Compound: C[C@H](c1cccc(Cl)c1)N(Cc1cccc(C(=O)O)c1)C(=O)c1cnc2ccccc2c1
inhibition at 3 µM (CYP1A2): 0%
microsomal CLint (Liver microsome): 102 µL/min/mg
hepatocyte intrinsic clearance (Hepatocyte): 45 µL/min/million cells
inhibition at 3 µM (CYP2C9): 0%
inhibition at 3 µM (CYP3A4): 0%
IC50 [1]: 62 nM
inhibition at 3 µM (CYP2D6): 0%
logD [4]: 1.5
microsomal CLint [2]: 10 µL/min/mg
inhibition at 3 µM (CYP2C8): 0%

Compound: C[C@H](c1ccc(F)cc1)N(Cc1cccc(C(=O)O)c1)C(=O)c1ccc(Oc2ccccc2)cc1
IC50 [1]: > 6170 nM

Compound: COc1ccc(C(C)N(Cc2cccc(C(=O)O)c2)C(=O)c2cnc3ccccc3c2)cc1 (configuration not stated)
IC50 [1]: 6100 nM

Further lines, with some results ahead:

IC50 [1]: 145 nM
Compound: C[C@H](c1ccc(F)cc1)N(Cc1cccc(C(=O)O)c1)C(=O)c1cc2ccccc2s1

microsomal CLint (Liver microsome): 76 µL/min/mg
IC50 [1]: 340 nM
microsomal CLint [2]: < 8 µL/min/mg
Compound: C[C@H](c1ccc(F)cc1)N(Cc1cccc(C(=O)O)c1)C(=O)c1cc2ccccc2nn1

microsomal CLint (Liver microsome): 325 µL/min/mg
hepatocyte intrinsic clearance (Hepatocyte): 23 µL/min/million cells
IC50 [1]: 94 nM
logD [4]: 0.9
microsomal CLint [2]: 42 µL/min/mg
Compound: C[C@H](c1ccc(F)cc1)N(Cc1cccc(C(=O)O)c1)C(=O)c1cc2ccccn2n1
Ki [3]: > 9180 nM

microsomal CLint (Liver microsome): 113 µL/min/mg
IC50 [1]: 307 nM
logD [4]: 0.6
Compound: C[C@H](c1ccc(F)cc1)N(Cc1cccc(C(=O)O)c1)C(=O)c1cn2ccccc2n1
Ki [3]: > 9180 nM

microsomal CLint (Liver microsome): 166 µL/min/mg
hepatocyte intrinsic clearance (Hepatocyte): 21 µL/min/million cells
IC50 [1]: 90 nM
logD [4]: 1.1
microsomal CLint [2]: 16 µL/min/mg
Compound: C[C@H](c1ccc(F)cc1)N(Cc1cccc(C(=O)O)c1)C(=O)c1cc2ccccc2cn1
Ki [3]: > 9180 nM
